Test results published in patent US20190359939A1, “NEW USE” (DIAMYD MEDICAL AB, priority 2015, published 2019).
“Also recorded” adds a separate entry of the source.

What was measured:
[1] = tested on: DCs from murine bone marrow (CD11c+ monocytes); experiment: Dendritic cell surface receptor expression (CD40, CD80, CD86, MHC Class II) by flow cytometry after cultivation with additives; type: cell-based, NOD mouse
Text: FIG. 1: Dendritic cell (CD11c+ monocytes) surface receptor expression after cultivation with various additives. Expression as indicated by the MFI of CD11+ monocyte cells stained with fluorescent antibodies towards CD40, CD80, CD86 and MHC Class II. A: comparing cells untreated (iDCs), matured with MPLA (mDCs), and cells treated with GABA, GABA and rhGAD65, and GABA and rhGAD65 matured with MPLA. B: comparing cells untreated (iDCs), matured with MPLA (mDCs), and cells treated with GABA, GABA and alhydrogel adsobed rhGAD65, and GABA and alhydrogel adsorbed rhGAD65 matured with MPLA. C: comparing cells untreated (iDCs), matured with MPLA (mDCs), and cells treated with GABA and rhGAD65 matured with MPLA, GABA and alhydrogel adsorbed rhGAD65 matured with MPLA, and cells treated with Dex and VD3 and matured with MPLA.
FIG. 1 (A, B and C) show the surface expression pattern of CD80, CD86, CD40 and MCH Class II proteins on murine DCs treated according to different protocols.
Mouse bone marrow-derived dendritic cells (BMDCs) were generated from bone marrow cells (femura) of 8-week-old NOD mouse females in complete RPMI 1640 medium (Lonza, Basel Switzerland) in the presence of GM-CSF (20 ng/ml) and IL-4 (4.5 ng/ml, PeproTech) for 6 days. Fresh medium was added on day 3 and comparator tDCs were induced by adding dexamethasone (1 μM) and vitamin D3 (0.5 ng/ml) on day 6, while mDCs were generated without tolerogenic factors, and iDCs were untreated for the entire cultivation period. Similarly for GABA testing, GABA was added on day 6 in at a concentration of 100 μM. Exposure to antigen was achieved by adding GAD65 (either pure GAD65 protein or alum adsorbed GAD65) to the cultivation mixture on day 6 along with tolerizing agents at a concentration of 5 μg/ml. […] Cells were harvested on day 8.
Mouse DCs were characterized by flowcytometry using following mAbs purchased from eBioscience; anti-CD11c-APC (clone N418), anti-CD40-PerCP-eFluor710 (clone 1C10), anti-CD80-FITC (clone 16-10A1), anti-CD86-PE (clone GL1), and anti-MHC II (I-A/I-E) (clone MS/114.15.2). Cells were stained with fluorochrome-conjugated antibodies against surface molecules and data were acquired by LSR II flow cytometers (BD Biosciences) and analyzed using FlowJo software (Tree Star).

[2] = tested on: CD11c+ DCs (IL-12 production); experiment: Intracellular IL-12 expression of treated dendritic cells by FACS; type: cell-based, NOD mouse; settings: with alhydrogel adsorbed rhGAD65, activated with MPLA, FIG. 2B
Text: FIG. 2: IL-12 production of treated dendritic cells. A: FACS plots showing the intracellular IL-12 expression of CD11c+ monocytes as percent IL-12+ cells of parent population; from left to right, untreated (iDCs), matured by MPLA (mDCs), tolerogenic by Dex and VD3 and tolerogenic by GABA. B: Column diagram of percent of parent numbers of the same groups.
In FIG. 2A, FACS plots of the intracellular expression of IL-12 of untreated CD11c+ DCs (iDCs), proinflammatory matured DCs (mDCs), DCs treated with Dex, VD3 and alhydrogel adsorbed rhGAD65 activated by MPLA, and DCs treated with GABA and alhydrogel adsorbed rhGAD65 activated by MPLA are shown. IL-12 is a proinflammatory cytokine, and low production is indicative of tolerogenic DCs. The IL-12+ cells are shown in the upper left quadrant of the plots.
Tolerogenically treated cells on the other hand generally have very low expression of IL-12. Both cells treated with Dex and VD3 and those treated with GABA, even though they have been activated with MPLA, show very low numbers of IL-12+ cells.
Mouse bone marrow-derived dendritic cells (BMDCs) were generated from bone marrow cells (femura) of 8-week-old NOD mouse females in complete RPMI 1640 medium (Lonza, Basel Switzerland) in the presence of GM-CSF (20 ng/ml) and IL-4 (4.5 ng/ml, PeproTech) for 6 days. […]

[3] = tested on: dendritic cells obtained from mouse bone marrow; settings: compared to LPS or mouse serum albumin treatment
Description: Dendritic cells obtained from mouse bone marrow are used. In order to secure a large amount of the number of the dendritic cells, Inaba's culture method (Inaba et al., J. Exp. Med. 175:1157, 1992), which is a representative method of culturing a dendritic cell, is modified and applied to the dendritic cells. […] A tibia and a femur of a mouse aged 6 to 11 weeks are extracted, and a RPMI1640 medium is added to bone marrow of the tibia and the femur to obtain bone marrow cells therefrom. Then, hypotonic ammonium chloride-potassium (ACK) lysing buffer is used for the lysis of red blood cells. The bone marrow cells are cultured in an RPMI1640 medium containing about 10 to 20 ng/ml recombinant mouse GMCSF, about 5 to 10 ng/ml recombinant mouse IL4, 5 to 10% heat inactivated fetal bovine serum, L-glutamine, 25 mM of HEPES, penicillin, and streptomycin under conditions of 5% CO2 and a temperature of 37° C., thereby inducing differentiation into dendritic cells. The medium is replaced every 2 days with a medium containing the recombinant cytokines. After 2 and 4 days of the culture, granulocytes and lymphocytes that are floating on the culture dish are removed. After 6 days of the culture, dendritic cells that are differentiated from precursor cells attached on the bottom of the culture dish and that have characteristic protrusions in suspension are used in the experiments. […]

NCCCC(=O)O [GABA, gamma-aminobutyric acid]
surface protein expression profile (CD80, CD86, CD40, MHC Class II) ([1]; 100 μM GABA alone, FIG. 1A): more similar to iDCs and indicative of tDCs | tolerogenic expression pattern compared to Dexamethasone, Vitamin D and MPLA protocol ([1]; 100 μM GABA and stabilization with MPLA, FIG. 1C): comparable or better | surface molecule expression ([1]; GABA plus alhydrogel adsorbed rhGAD65, then MPLA, FIG. 1B): keep a low surface molecule expression | surface protein expression profile (CD80, CD86, CD40, MHC Class II) ([1]; GABA plus antigen GAD65 (rhGAD65), no MPLA): remains the same; also recorded: remains indicative of tDCs | surface protein expression profile (CD80, CD86, CD40, MHC Class II) ([1]; GABA plus rhGAD65, then MPLA): increases slightly but is still much lower than mDCs; also recorded: still remains almost the same | CD80 expression compared to Dex and VD3 treated cells ([1]; activated by MPLA, FIG. 1C): even lower | numbers of IL-12+ cells (percentage of CD11c+ monocytes that are IL-12 positive) [2]: very low | amount of maturation markers on the surface of the dendritic cells (CD40, CD80, CD86, MHC class II) [3]: decreased
